What all share (assay): DTP human tumour cell line panel, 48 h
The test system of experiment [1] is PC-3.
The test system of experiment [2] is BT-549.
In experiment [3] the test system is OVCAR-3.
Experiment [4] relates to UACC-257.
The test system of experiment [5] is UACC-62.
Experiment [6] relates to SNB-75.
Experiment [7] concerns MDA-MB-435.
The subject of experiment [8] is SNB-19.
In experiment [9] the test system is NCI/ADR-RES.
The test system of experiment [10] is COLO 205.
The test system of experiment [11] is TK-10.
For experiment [12], the system named is DU-145.
Experiment [13] concerns Malme-3M.
In experiment [14] the test system is OVCAR-4.
Experiment [15] concerns NCI-H522.
The subject of experiment [16] is SF-539.
In experiment [17] the test system is HCT-15.
Experiment [18] has as its system SK-OV-3.
The test system of experiment [19] is SK-MEL-5.
For experiment [20], the system named is K562.

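1) Cells in 96-well plates. 2) Compound, 48 h, 5 concentrations. 3) Linear interpolation between surrounding doses. 4) Unreached endpoint = highest concentration. The concentration for 50% growth inhibition is given as GI50.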 Activity calls are given as the source filed them. Cut-off read from the data, not from the text of the source: active = GI50 up to about 1.1 µM and inactive = higher.

`OC[C@H]1O[C@@H](n2cnc3c(S)ncnc32)[C@H](O)[C@@H]1O` [THIOINOSINE]: the GI50 is > 2500 µM (inactive) in experiment [1]; > 2500 µM (inactive) in experiment [2]; 1160 µM (inactive) in experiment [3]; > 2500 µM (inactive) in experiment [4]; 1250 µM (inactive) in experiment [5]; > 2120 µM (inactive) in experiment [6]. In addition, the GI50 in experiment [7] is 2330 µM (inactive); in experiment [8] it was > 1580 µM (inactive); in experiment [9], 2040 µM (inactive); in experiment [10], > 2230 µM (inactive); in experiment [11], > 2500 µM (inactive); in experiment [12], 1390 µM (inactive). Moreover, the GI50 in [13] is 1860 µM (inactive); in experiment [14] it was 1520 µM (inactive); in experiment [15], 2160 µM (inactive); in experiment [16] it was > 2500 µM (inactive); in experiment [17], above 2500 µM; in [18], 603 µM (inactive). Also, the GI50 in experiment [19] was > 2500 µM (inactive); in experiment [20], 1290 µM (inactive).

For orientation: GI50 means the concentration giving 50% growth inhibition.

The values are drawn from ChEMBL document CHEMBL1201862, “PubChem BioAssay data set” (2004).
